Data on twelve compounds can be found in patent publication US6887896B1, “7-[(7-Alkoxy)-chrom-3-en-6-yl]-heptatrienoic acid and 7-[(3-alkoxy)-5,6-dihydronaphthalen-2-yl]-heptatrienoic acid derivatives having serum glucose reducing activity” (Allergan, Inc., priority 2003, dated 2005).

Bounds are passed on as bounds.

Assay [1] has as its target T1, RXRβ (UniProt P28704).
T1 sequence (P28704 1-520): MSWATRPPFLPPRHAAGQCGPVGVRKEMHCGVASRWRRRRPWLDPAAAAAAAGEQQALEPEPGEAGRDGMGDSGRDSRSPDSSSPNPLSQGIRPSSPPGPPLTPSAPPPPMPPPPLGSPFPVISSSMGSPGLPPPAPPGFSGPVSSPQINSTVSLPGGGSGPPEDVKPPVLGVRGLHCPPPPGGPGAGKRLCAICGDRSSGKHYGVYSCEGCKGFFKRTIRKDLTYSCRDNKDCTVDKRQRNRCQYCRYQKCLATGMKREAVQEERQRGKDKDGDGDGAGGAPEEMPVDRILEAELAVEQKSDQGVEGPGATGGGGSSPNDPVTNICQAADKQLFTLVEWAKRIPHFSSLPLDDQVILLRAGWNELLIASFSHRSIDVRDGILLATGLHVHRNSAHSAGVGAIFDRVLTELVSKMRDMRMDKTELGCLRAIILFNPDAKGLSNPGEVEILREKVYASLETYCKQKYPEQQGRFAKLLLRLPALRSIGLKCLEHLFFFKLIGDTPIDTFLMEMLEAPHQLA
Description: holoreceptor transactivation assay, RXRβ. In kind it is cell-based. The conditions noted are these: for EC50: holoreceptor transactivation, read-out: RXR Trans. EC50 β; for RXR Trans. efficacy (number in parentheses) β: percentage compared to the standard compound. Summed up: (§1)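 RXR activation measured in holoreceptor transactivation assays; RAR subtypes in chimeric receptor transactivation assays. Values are EC50 in nM, with efficacy as percentage of maximal activity of a reference cyclopropyl-pentadienoic acid RXR agonist.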

Assay [2] addresses T1, RXRβ. Put plainly: ligand binding assay, RXRβ. The conditions noted are these: for Ki: read-out: RXR Bind Ki β; for Kd: Table 9 (Formula F), read-out: RXR β Kd. The procedure, abridged: (§2)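 Binding of compounds to several retinoid receptor subtypes was measured. Results are given as Ki values in nanomolar concentration, derived per Cheng et al.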
Assay [3] addresses T2, RARβ (Homo sapiens, UniProt P10826).
T2 sequence (P10826 1-455): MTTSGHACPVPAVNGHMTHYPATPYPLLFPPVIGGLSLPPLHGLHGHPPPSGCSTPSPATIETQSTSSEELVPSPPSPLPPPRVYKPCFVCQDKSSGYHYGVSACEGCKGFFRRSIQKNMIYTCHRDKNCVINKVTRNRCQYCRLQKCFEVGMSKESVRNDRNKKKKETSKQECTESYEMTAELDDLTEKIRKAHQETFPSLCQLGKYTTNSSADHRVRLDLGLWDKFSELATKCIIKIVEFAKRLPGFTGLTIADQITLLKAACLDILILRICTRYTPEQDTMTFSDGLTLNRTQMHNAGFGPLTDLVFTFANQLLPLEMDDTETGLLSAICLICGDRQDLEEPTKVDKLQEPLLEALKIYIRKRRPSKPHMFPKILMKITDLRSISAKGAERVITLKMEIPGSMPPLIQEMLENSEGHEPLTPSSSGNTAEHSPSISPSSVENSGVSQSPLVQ
Put plainly: ligand binding assay, RARβ. The conditions noted are these: for Ki: read-out: RAR Bind. Ki β; for Kd: Table 9 (Formula F), read-out: RAR β Kd. The procedure, abridged:
as §2

Assay [4] addresses T3, RARβ (Homo sapiens, UniProt P10826).
T3 sequence (P10826 183-417 limits assumed): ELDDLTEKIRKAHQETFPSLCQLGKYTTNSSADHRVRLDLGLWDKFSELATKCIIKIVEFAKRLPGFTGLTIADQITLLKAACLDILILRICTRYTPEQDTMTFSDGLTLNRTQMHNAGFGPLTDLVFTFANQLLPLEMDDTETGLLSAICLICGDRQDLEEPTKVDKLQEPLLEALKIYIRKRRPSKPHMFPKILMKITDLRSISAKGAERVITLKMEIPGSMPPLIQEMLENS
Put plainly: chimeric receptor transactivation assay, RARβ. In kind it is cell-based. The conditions noted are these: for EC50: chimeric receptor transactivation, read-out: RAR Trans. EC50 β; for Emax: percentage compared to the standard compound, read-out: RAR Trans. efficacy (number in parentheses) β. The procedure, abridged: as §1

Another assay addresses T4, RARγ (Homo sapiens, UniProt P13631).
T4 sequence (P13631 1-454): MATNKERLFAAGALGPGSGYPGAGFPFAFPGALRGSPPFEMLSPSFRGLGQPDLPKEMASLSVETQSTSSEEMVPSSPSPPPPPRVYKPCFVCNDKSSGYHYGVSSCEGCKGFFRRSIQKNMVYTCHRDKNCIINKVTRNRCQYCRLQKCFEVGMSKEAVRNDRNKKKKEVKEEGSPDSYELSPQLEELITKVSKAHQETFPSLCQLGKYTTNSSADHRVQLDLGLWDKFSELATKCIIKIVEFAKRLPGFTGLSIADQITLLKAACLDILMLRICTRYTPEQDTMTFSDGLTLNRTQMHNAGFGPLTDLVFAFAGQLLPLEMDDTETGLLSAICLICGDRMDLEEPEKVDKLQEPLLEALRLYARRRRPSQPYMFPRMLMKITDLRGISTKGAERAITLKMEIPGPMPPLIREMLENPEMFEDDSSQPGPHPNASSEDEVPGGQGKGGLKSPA
Description: ligand binding assay, RARγ. The conditions noted are these: for Ki: read-out: RAR Bind. Ki γ; for Kd: Table 9 (Formula F), read-out: RAR γ Kd. Summed up: as §2

Regarding `CCOc1cc2c(cc1\C(CC)=C(F)/C=C/C(C)=C/C(=O)O)C(C)=CC(C)(C)O2` [Compound 132, 7-(7-Ethoxy-2,2,4-trimethyl-2H-chromen-6-yl)-6-fluoro-3-methyl-nona-2E,4E,6E-trienoic acid], the values for the EC50 at RXRβ [1] and on RARβ [4] were over 10000 nM and 710 nM, respectively. Also, the figures for the Ki on RXRβ [2], at RARβ [3] and at RARγ were 1100 nM, 548 nM and 2400 nM, respectively. Moreover, on RARβ [4], the Emax amounted to 8%.
Regarding `CC/C(=C(F)/C=C/C(C)=C/C(=O)O)c1cc2c(c(Cl)c1OC)OC(C)(C)C=C2C(C)C` [Compound 171, 7-(8-Chloro-4-isopropyl-7-methoxy-2,2-dimethyl-2H-chromen-6-yl)-6-fluoro-3-methyl-nona-2E,4E,6E-trienoic acid], the EC50 at RXRβ [1] was found to be 0.2 nM; at RARβ [4], 49 nM. Besides, on RXRβ [1], the “RXR Trans. efficacy (number in parentheses) β” value (“RXR Trans. efficacy” below) is on record as 85%. Further, the Ki on RXRβ [2] turned out to be 12 nM; on RARβ [3], 381 nM; on RARγ, 4900 nM. Besides, at RARβ [4], the Emax came to 13%.
Regarding `CCOc1cc2c(cc1\C(C)=C(F)/C=C/C(C)=C/C(=O)O)C(C(C)(C)C)=CCC2(C)C` [Compound A-82, (2E,4E,6E)-6-Fluoro-3-(4,4-dimethyl-6-ethoxy-1-tert-butyl-3,4 dihydronaphthalen-7-yl)-3-methyl-2,4,6-octa-trienoic acid], the results for the EC50 at RXRβ [1] and on RARβ [4] were 4 nM and 170 nM, respectively. In addition, at RXRβ [1], the “RXR Trans. efficacy” value is recorded as 41%. The values for the Ki at RXRβ [2], at RARβ [3] and on RARγ were 14 nM, 400 nM and 1400 nM, respectively. Also, the Emax on RARβ [4] is 9%.
For `CCOc1cc2c(cc1\C(CC)=C(F)/C=C/C(C)=C/C(=O)O)C(C(C)(C)C)=CCC2(C)C` [Compound A-83, (2E,4E,6E)-7-(8-tert-Butyl-3-ethoxy-5,5-dimethyl-5,6-dihydronaphthalen-2-yl)-6-fluoro-3-methyl-nona-2,4,6-trienoic acid], the EC50 came to 7 nM on RXRβ [1] and 31 nM on RARβ [4]. The “RXR Trans. efficacy” value at RXRβ [1] was found to be 17%. For the same compound, the Ki is 12 nM on RXRβ [2], 261 nM at RARβ [3] and 698 nM on RARγ. Moreover, the Emax on RARβ [4] came out at 12%.
In the case of `CCOc1c(\C(CC)=C(F)/C=C/C(C)=C/C(=O)O)cc2c(c1Br)C(C)(C)CC=C2C(C)CC` (stereo not shown) [Compound A-176, (2E,4E,6E)-7-(4-Bromo-8-sec-butyl-3-ethoxy-5,5-methyl-5,6-dihydro-naphthalen-2-yl)-6-fluoro-3-methyl-nona-2,4,6-trienoic acid], the EC50 at RXRβ [1] was 4 nM; on RARβ [4], 14 nM. For the same compound, on RXRβ [1], the “RXR Trans. efficacy” value was determined as 58%. In addition, the figures for the Kd on RXRβ [2], on RARβ [3] and at RARγ were 23 nM, 112 nM and 517 nM, respectively. The Emax at RARβ [4] came to 19%.
`CCOc1cc2c(cc1\C(C)=C(F)/C=C/C(C)=C/C(=O)O)C=CCC2(C)C` [Compound A-76, (2E,4E,6E)-7-(3-Ethoxy-5,5-dimethyl-5,6-dihydro-naphthalen-2-yl)-6-fluoro-3-methyl-octa-2,4.6-trienoic acid]: the figures for the EC50 on RXRβ [1] and on RARβ [4] were 368 nM and over 10000 nM, respectively. For the same compound, on RXRβ [1], the “RXR Trans. efficacy” value is 128%. Moreover, the Ki at RXRβ [2] was 347 nM; at RARβ [3], 2600 nM; on RARγ, 9200 nM.
Consider `CC/C(=C(F)/C=C/C(C)=C/C(=O)O)c1cc2c(cc1OC)OC(C)(C)C=C2C(C)(C)C` [Compound 131, 7-(4-tert-Butyl-7-methoxy-2,2-dimethyl-2H-chromen-6-yl)-6-fluoro-3-methyl-nona-2E,4E,6E-trienoic acid], for which the figures for the EC50 on RXRβ [1] and on RARβ [4] were 64 nM and 116 nM, respectively. In addition, the “RXR Trans. efficacy” value at RXRβ [1] is 47%. For the same compound, the Ki on RXRβ [2] was 94 nM; on RARβ [3], 843 nM; at RARγ, 3300 nM. Also, the Emax at RARβ [4] turned out to be 13%.
Consider `CCOc1cc2c(cc1\C(=C/C=C/C(C)=C/C(=O)O)CC)C(C)=CC(C)(C)O2` [Compound 46, 7-(7-Ethoxy-2,2,4-trimethyl-2H-chromen-6-yl)-3-methyl-nona-2E,4E,6Z-trienoic acid], for which the results for the EC50 at RXRβ [1] and on RARβ [4] were over 1000 nM and 305 nM, respectively. Moreover, the figures for the Ki on RXRβ [2], at RARβ [3] and at RARγ were 1700 nM, 614 nM and 3400 nM, respectively. In addition, the Emax on RARβ [4] turned out to be 6%.
Turning to `CCOc1cc2c(cc1\C(C)=C/C=C/C(C)=C/C(=O)O)C(CC)=CC(C)(C)O2` [Compound 45, 7-(7-Ethoxy-4-ethyl-2,2-dimethyl-2H-chromen-6-yl)-3-methyl-octa-2E,4E,6Z-trienoic acid], the EC50 at RXRβ [1] and on RARβ [4] was over 1000 nM each time. In addition, the Ki came out at 343 nM at RXRβ [2], 196 nM on RARβ [3] and 2300 nM on RARγ.
Consider `CCOc1c(\C(=C(F)/C=C/C(C)=C/C(=O)O)C(C)C)cc2c(c1Br)C(C)(C)CC=C2C(C)C` [Compound A-171, (2E,4E,6E)-7-(4-Bromo-3-ethoxy-8-isopropyl-5,5-dimethyl-5,6-dihydro-naphthalen-2-yl)-6-fluoro-3.8-dimethyl-nona-2.4,6-trienoic acid], for which the values for the EC50 on RXRβ [1] and on RARβ [4] were 3 nM and 2 nM, respectively. Further, the “RXR Trans. efficacy” value at RXRβ [1] is 30%. In addition, the Kd at RXRβ [2] was 15 nM; on RARβ [3], 37 nM; at RARγ, 272 nM. For the same compound, the Emax at RARβ [4] was found to be 12%.
For the compound `CCOc1cc2c(cc1\C(C)=C(F)/C=C/C(C)=C/C(=O)O)C(C)=CCC2(C)C`, the EC50 at RXRβ [1] was 12 nM; at RARβ [4], 316 nM. Besides, the “RXR Trans. efficacy” value on RXRβ [1] stood at 59%. Further, the Ki was 15 nM on RXRβ [2], 359 nM at RARβ [3] and 1200 nM on RARγ. Besides, the Emax at RARβ [4] came to 26%.
As to `CCOc1cc2c(cc1\C(=C/C=C/C(C)=C/C(=O)O)CC)C(C(C)(C)C)=CCC2(C)C` [Compound A-18, 7-(8-tert-butyl-3-ethyoxy-5,5-dimethyl-5,6-dihydronaphthalen-2-yl)-3-methyl-nona-2E,4E,6Z-trienoic acid], the EC50 at RXRβ [1] turned out to be 11 nM; on RARβ [4], 15 nM. Also, the “RXR Trans. efficacy” value at RXRβ [1] was found to be 21%. In addition, the Ki came to 31 nM on RXRβ [2], 137 nM on RARβ [3] and 537 nM at RARγ. The Emax on RARβ [4] was 7%.
